Test system: dorsal forearm skin of healthy female Caucasian subjects
Test: In vivo biopsy (histology after 3 week patch treatment)
Parameters: species or system human
Conditions: 3 weeks semi-occlusion patch, 2 mg/cm^2, extract 0.33% active, retinol 0.05% active
Method: Healthy female Caucasian subjects aged 30-65, with skin type II or III and mild to moderate photo damage, were treated on the dorsal forearm for 3 weeks (3 consecutive rounds of 5×24 hour) under semi-occlusion patches. Test articles including active ingredients, vehicle controls, and retinol were applied in a randomized allocation on 6 sites on each forearm. The application dose was 2 mg/cm^2. After 3 week treatment, a 2 mm punch biopsy was obtained from each treatment site and fixed in 10% buffered formalin. Tissue samples then embedded in paraffin, sectioned (5 μm thickness), and stained for skin markers after re-hydration. […] Retinol at a active concentration of 0.05% was used as a positive control. Retinol use at a 0.05% active concentration in the semi-occlusion patch vehicle formulation yielded a visual score of approximately 0.56 out of a 4 point scale in HE staining (measuring hematoxylin and eosin staining, an indication of viable epidermal thickness and health) with 63.6% of the subjects showing an improvement; a visual score of 0.6 out of a 4 point scale in M-TC staining (Masson's trichrome staining, assessing total mature fiber-forming collagen in the dermis—mainly Collagen I, […] and Collagen V) with 51.6% of the subjects showing an improvement; a visual score of 0.52 out of a 4 point scale for pro-Col (measuring new synthesis of Collagen I by skin fibroblasts in the dermis) with 51.6% of the subjects showing an improvement; and a visual score of 0.57 out of a 4 point scale for HA (measuring level of hyaluronic acid in both dermis and epidermis) with 50% of the subjects showing an improvement.

CC1=C(/C=C/C(C)=C/C=C/C(C)=C/CO)C(C)(C)CCC1 [Retinol]
subjects showing an improvement, HA: 50 % of the subjects
subjects showing an improvement, HE staining: 63.6 % of the subjects
subjects showing an improvement, M-TC staining: 51.6 % of the subjects
subjects showing an improvement, pro-Col: 51.6 % of the subjects
visual score for HA (hyaluronic acid in dermis and epidermis) (out of a 4 point scale): 0.57
visual score for pro-Col (new synthesis of Collagen I) (out of a 4 point scale): 0.52
visual score in HE staining (viable epidermal thickness and health) (out of a 4 point scale): approximately 0.56
visual score in M-TC staining (total mature fiber-forming collagen in the dermis) (out of a 4 point scale): 0.6

From patent publication US9757327B2, “Abutilon indicum extracts and methods of use” (Avon Products, Inc., priority 2013, dated 2017)
